BindingDB's records for doi:10.7270/Q2WQ02FK (The Scripps Research Institute Molecular Screening Center, 2013)

Molecular target: T1, T cell receptor alpha variable 4 (Homo sapiens, UniProt A0A0B4J268)
T1 sequence (A0A0B4J268 whole entry): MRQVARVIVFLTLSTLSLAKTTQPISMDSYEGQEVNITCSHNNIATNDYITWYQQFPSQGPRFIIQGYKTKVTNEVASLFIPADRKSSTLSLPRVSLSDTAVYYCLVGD

| Compound | IC50 [µM] |
| --- | --- |
| CC1=CC(/C=N/n2c(COc3ccccc3C)nc3ccccc3c2=O)C(=O)C([N+](=O)[O-])=C1 (configuration not stated) | > 94.1 |
| COc1ccc(CC(=O)N/N=C/C2C=C([N+](=O)[O-])C=C(Br)C2=O)cc1 (configuration not stated) | > 94.1 |
| CC1=CC(/C=N/n2c(CO[N-][C+](C)c3ccccc3)nc3ccccc3c2=O)C(=O)C([N+](=O)[O-])=C1 (configuration not stated) | > 94.1 |
| O=C(N/N=C/C1C=CC=C([N+](=O)[O-])C1=O)c1cccs1 (configuration not stated) | > 94.1 |
| COC1=CC([N+](=O)[O-])=CC(/C=N/NC(=O)c2cc(C)nc3ccccc23)C1=O (configuration not stated) | > 94.1 |
| O=C(N/N=C/C1C=C([N+](=O)[O-])C=CC1=O)c1cccc(N2CCCC2=O)c1 (configuration not stated) | > 94.1 |
| CCOC(=O)C1C(CC)=Nc2ccccc2N=C1NC(=O)Nc1ccc(Cl)c(Cl)c1 (configuration not stated) | 10.7 |
| O=C(NN=CC1=CC(=O)C(=O)CC1)NN=CC1=CC(=O)C(=O)CC1 [1,3-bis[[(Z)-(3-hydroxy-4-oxocyclohexa-2,5-dien-1-ylidene)methyl]amino]urea] | 1.03 |
| O=C1C([N+](=O)[O-])=CC(Cl)=CC1C=NNC(=S)Nc1ccc(S(=O)(=O)N2CCOCC2)cc1 (configuration not stated) [1-[[(E)-(3-chloro-5-nitro-6-oxo-1-cyclohexa-2,4-dienylidene)methyl]amino]-3-[4-(4-morpholinylsulfonyl)phenyl]thiourea] | > 94.1 |
| Nc1nnc(CC(=O)N/N=C/C2C=C([N+](=O)[O-])C=CC2=O)s1 (configuration not stated) [2-(5-amino-1,3,4-thiadiazol-2-yl)-N'-[(E)-(3-nitro-6-oxo-1-cyclohexa-2,4-dienylidene)methyl]acetohydrazide] | > 94.1 |
| O=C(CNC(=O)c1ccccc1Br)N/N=C/C1C=C([N+](=O)[O-])C=C(Br)C1=O (configuration not stated) [2-bromanyl-N-[2-[2-[(E)-(5-bromanyl-3-nitro-6-oxidanylidene-cyclohexa-2,4-dien-1-ylidene)methyl]hydrazinyl]-2-oxidanylidene-ethyl]benzamide] | > 94.1 |
| CCC(NNC(=O)c1ccccc1O)=C1C(=O)NC(=O)N(Cc2ccccc2)C1=O [2-hydroxy-N'-[(1E)-1-[2,4,6-trioxo-1-(phenylmethyl)-1,3-diazinan-5-ylidene]propyl]benzohydrazide] | > 94.1 |
| O=C1NC(=O)N(CCc2ccccc2)C(=O)C1=CNNC(=O)c1ccccc1O [2-hydroxy-N'-[(E)-[2,4,6-trioxo-1-(2-phenylethyl)-1,3-diazinan-5-ylidene]methyl]benzohydrazide] | > 94 |
| O=C1C=CC([N+](=O)[O-])=CC1/C=N/n1c(COc2ccccc2)nc2ccccc2c1=O (configuration not stated) [3-[[(E)-(3-nitro-6-oxocyclohexa-2,4-dien-1-ylidene)methyl]amino]-2-(phenoxymethyl)quinazolin-4-one] | > 94.1 |
| O=C1CC(=O)c2c(O)cc(O)c(O)c2C1=O [4,5,7,8-tetrahydroxy-1,2-naphthoquinone] | > 94.1 |
| Oc1c(Br)cc(CC=Nc2cc(O)c3cccnc3c2O)cc1Br [7-[2-(3,5-dibromo-4-hydroxyphenyl)ethylamino]quinoline-5,8-dione] | 18.8 |
| Oc1ccc(CN=Nc2ncnc3c2ncn3Cc2ccccc2)cc1O [(4Z)-2-oxidanyl-4-[[2-[9-(phenylmethyl)purin-6-yl]hydrazinyl]methylidene]cyclohexa-2,5-dien-1-one] | > 94.1 |
| O=[N+]([O-])c1cc(Br)c(O)c(CN=Nc2nnnn2-c2cccc3ccccc23)c1 [(6E)-2-bromo-6-[[2-(1-naphthalen-1-yltetrazol-5-yl)hydrazinyl]methylidene]-4-nitrocyclohexa-2,4-dien-1-one] | > 94.1 |
| CCc1n[nH]c(=S)n1N=CC1C=C(OC)C=C([N+](=O)[O-])C1=O (configuration not stated) [(6E)-6-[[(3-ethyl-5-sulfanylidene-1H-1,2,4-triazol-4-yl)amino]methylidene]-4-methoxy-2-nitro-1-cyclohexa-2,4-dienone] | 18.4 |
| C=CCN1C(=O)/C(=N\NC(=O)CNC(=O)/C=C/c2ccco2)c2ccccc21 [(E)-N-[1-Allyl-2-oxo-1,2-dihydro-indol-(3Z)-ylidene-hydrazinocarbonylmethyl]-3-furan-2-yl-acrylamide] | > 94.1 |
| O=C(N/N=C/C1C=C([N+](=O)[O-])C=CC1=O)/C(=C\c1cccs1)NC(=O)c1ccccc1 (configuration not stated) [MLS000332530] | > 94.1 |
| Cc1cc(C(=O)N/N=C/C2C=C(Br)C=C([N+](=O)[O-])C2=O)c2ccccc2n1 (configuration not stated) [MLS000585468] | > 94.1 |
| Cc1cc(=O)oc2cc(OCC(=O)N/N=C/C3C=C([N+](=O)[O-])C=CC3=O)ccc12 (configuration not stated) [MLS000588734] | > 94.1 |
| COC1=CC(=O)C(/C=N/NC(=O)c2ccncc2)C(OC)=C1[N+](=O)[O-] (configuration not stated) [MLS000673335] | > 94.1 |

| Compound | IC50 [µM] |
| --- | --- |
| Cc1cc2cc(CNC(=O)c3ccc(C)c([N+](=O)[O-])c3)ccc2[nH]1 [MLS000724615] | > 94.1 |
| O=C(CSc1nc2ccccc2s1)N/N=C/C1C=C([N+](=O)[O-])C=CC1=O (configuration not stated) [MLS000777065] | > 94.1 |
| O=C1C=CC([N+](=O)[O-])=CC1C=NNC(=S)Nc1ccc(Cl)cc1Cl (configuration not stated) [MLS000777079] | > 94.1 |
| CC1=CC([N+](=O)[O-])=CC(/C=N/n2c(C)nc3ccccc3c2=O)C1=O (configuration not stated) [MLS000778735] | > 94 |
| CN1C(=O)C(C=NNC(=O)c2cc3ccccc3cc2O)c2ccccc21 (configuration not stated) [MLS000912237] | > 94.1 |
| O=C(N/N=C/C1C=C(Cl)C=C([N+](=O)[O-])C1=O)c1cccc(S(=O)(=O)N2CCOCC2)c1 (configuration not stated) [MLS002155639] | > 94.1 |
| O=C(N/N=C/C1C=C(Cl)C=C([N+](=O)[O-])C1=O)c1ccc2c(c1)OCO2 (configuration not stated) [N'-[(E)-(3-chloranyl-5-nitro-6-oxidanylidene-cyclohexa-2,4-dien-1-ylidene)methyl]-1,3-benzodioxole-5-carbohydrazide] | > 94.1 |
| Cc1cc(C(=O)N/N=C/C2C=C(Cl)C=C([N+](=O)[O-])C2=O)c2ccccc2n1 (configuration not stated) [N'-[(E)-(3-chloranyl-5-nitro-6-oxidanylidene-cyclohexa-2,4-dien-1-ylidene)methyl]-2-methyl-quinoline-4-carbohydrazide] | > 94.1 |
| CC1=CC([N+](=O)[O-])=CC(/C=N/NC(=O)C2COc3ccccc3O2)C1=O (configuration not stated) [N'-[(E)-(5-methyl-3-nitro-6-oxocyclohexa-2,4-dien-1-ylidene)methyl]-2,3-dihydro-1,4-benzodioxine-3-carbohydrazide] | > 94.2 |
| O=C1NC(=O)N(Cc2ccco2)C(=O)C1=CNNC(=O)c1ccccc1O [N'-[(E)-[1-(furan-2-ylmethyl)-2,4,6-tris(oxidanylidene)-1,3-diazinan-5-ylidene]methyl]-2-oxidanyl-benzohydrazide] | > 94 |
| O=C1NC(=O)N(Cc2ccco2)C(=O)C1=CNNC(=O)c1ccccc1 [N'-[(E)-[1-(furan-2-ylmethyl)-2,4,6-tris(oxidanylidene)-1,3-diazinan-5-ylidene]methyl]benzohydrazide] | > 94.2 |
| Cc1ccccc1C(=O)Nc1cccc(C(=O)N/N=C/C2C=C(Cl)C=C([N+](=O)[O-])C2=O)c1 (configuration not stated) [N-(3-{[(2E)-2-(5-chloro-2-hydroxy-3-nitrobenzylidene)hydrazino]carbonyl}phenyl)-2-methylbenzamide] | > 94.1 |
| Cc1ccc(C(=O)Nc2nc(C(C)(C)C)cs2)s1 [N-(4-tert-butyl-2-thiazolyl)-5-methyl-2-thiophenecarboxamide] | > 94.1 |
| O=C(NC(C(=O)NN=CC1C=C([N+](=O)[O-])C=CC1=O)c1n[nH]c(=O)c2ccccc12)c1ccccc1 (configuration not stated) [N-[2-[2-[(E)-(3-nitro-6-oxidanylidene-cyclohexa-2,4-dien-1-ylidene)methyl]hydrazinyl]-2-oxidanylidene-1-(4-oxidanylidene-3H-phthalazin-1-yl)ethyl]benzamide] | > 94.1 |
| CC(NNC(=O)c1ccc(-c2ccccc2)cc1)=C1C(=O)c2ccccc2C1=O [N-[(E)-1-(1,3-dioxoinden-2-yl)ethylideneamino]-4-phenylbenzamide] | > 94.1 |
| O=C(N/N=C/C1C=C([N+](=O)[O-])C=C([N+](=O)[O-])C1=O)/C(=C\c1cccs1)NC(=O)c1ccccc1 (configuration not stated) [SMR000207704] | > 94.1 |
| O=C1C([N+](=O)[O-])=CC=CC1/C=N/n1cnc2scc(-c3ccc(Cl)cc3)c2c1=O (configuration not stated) [SMR000314525] | > 94.1 |
| Cc1cc(C(=O)NN=CC2C=C(Cl)C=C([N+](=O)[O-])C2=O)[nH]n1 (configuration not stated) [SMR000414694] | > 94.1 |
| Cc1c(NC(=S)NN=CC2C=C([N+](=O)[O-])C=CC2=O)c(=O)n(-c2ccccc2)n1C (configuration not stated) [SMR000415003] | > 94.1 |
| COc1ccc(C(=O)CC=NNC(=O)c2ccc(Cl)cc2)cc1 [SMR000499516] | > 94.1 |
| O=Nc1[nH]c(=O)c(CC(=O)c2ccccc2)nc1NO [SMR000539633] | > 94.2 |
| O=C(O)c1ccccc1NS(=O)(=O)c1ccc(N=NCc2ccc(O)c(O)c2)c([N+](=O)[O-])c1 [SMR001238114] | 32.5 |
| CCOC(=O)c1c(C)[nH]c(C(=O)N/N=C/C2C=C([N+](=O)[O-])C=CC2=O)c1C (configuration not stated) [ethyl 2,4-dimethyl-5-[[[(E)-(3-nitro-6-oxocyclohexa-2,4-dien-1-ylidene)methyl]amino]carbamoyl]-1H-pyrrole-3-carboxylate] | > 94.1 |
